Test system: MV-4-11 cells
Test: Gene expression microarray analysis (Affymetrix PrimeView) and GSEA
Format: cell-based, human
Design: RFU PODN (11730768_x_at) / Fold change /veh PODN (11730768_x_at) / RFU LINC00158 (11744669_a_at) / Fold change /veh LINC00158 (11744669_a_at) / RFU DUSP10 (11751237_a_at) / Fold change /veh DUSP10 (11751237_a_at) / RFU ID3 (11757404_x_at) / Fold change /veh ID3 (11757404_x_at) / RFU PLEKHG5 (11737974_s_at) / Fold change /veh PLEKHG5 (11737974_s_at) / RFU LRRC4B (11730491_at) / Fold change /veh LRRC4B (11730491_at) / RFU GIMAP4 (11747438_a_at) / Fold change /veh GIMAP4 (11747438_a_at) / RFU KRT8 (11758183_x_at) / Fold change /veh KRT8 (11758183_x_at) / RFU CNN1 (11734310_a_at) / Fold change /veh CNN1 (11734310_a_at) / RFU VPS37D (11726825_at) / Fold change /veh VPS37D (11726825_at) / RFU C10orf10 (11716522_x_at) / Fold change /veh C10orf10 (11716522_x_at) / RFU KIR2DL2 /// KIR2DL4 /// KIR2DL5A /// KIR2DL5B /// KIR2DS1 /// KIR2DS2 /// KIR2DS3 /// KIR2DS4 /// KIR3DL3 /// KIR3DL3 /// KIR3DS1 (11738374_at) / Fold change /veh KIR2DL2 /// KIR2DL4 /// KIR2DL5A /// KIR2DL5B /// KIR2DS1 /// KIR2DS2 /// KIR2DS3 /// KIR2DS4 /// KIR3DL3 /// KIR3DL3 /// KIR3DS1 (11738374_at) / RFU C1QL1 (11718748_at) / Fold change /veh C1QL1 (11718748_at) / RFU TMPRSS4 (11747572_a_at) / Fold change /veh TMPRSS4 (11747572_a_at) / RFU HAMP (11756126_x_at) / Fold change /veh HAMP (11756126_x_at) / RFU RNFT2 (11725882_a_at) / Fold change /veh RNFT2 (11725882_a_at) / RFU NR4A2 (11747474_a_at) / Fold change /veh NR4A2 (11747474_a_at) / RFU ABCC12 (11746883_a_at) / Fold change /veh ABCC12 (11746883_a_at) / RFU TMEM136 (11760407_x_at) / Fold change /veh TMEM136 (11760407_x_at) / RFU CLDN22 /// WWC2 (11732394_at) / Fold change /veh CLDN22 /// WWC2 (11732394_at) / RFU HLA-DPB1 (11760878_x_at) / Fold change /veh HLA-DPB1 (11760878_x_at) / RFU SPINT1 (11716480_a_at) / Fold change /veh SPINT1 (11716480_a_at) / RFU GAP43 (11754022_s_at) / Fold change /veh GAP43 (11754022_s_at) / RFU A4GNT (11735810_at) / Fold change /veh A4GNT (11735810_at) / RFU PRB3 (11715151_x_at) / Fold change /veh PRB3 (11715151_x_at) / RFU TUBB4B (11761932_at) / Fold change /veh TUBB4B (11761932_at) / RFU CAPN14 (11732068_a_at) / Fold change /veh CAPN14 (11732068_a_at) / RFU TMCC2 (11721928_a_at) / Fold change /veh TMCC2 (11721928_a_at) / RFU IRGQ (11745062_a_at) / Fold change /veh IRGQ (11745062_a_at) / RFU FAM174B (11720279_a_at) / Fold change /veh FAM174B (11720279_a_at) / RFU TMPRSS4 (11748680_a_at) / Fold change /veh TMPRSS4 (11748680_a_at) / RFU FAM212B (11763350_a_at) / Fold change /veh FAM212B (11763350_a_at) / RFU PLEKHG5 (11743358_a_at) / Fold change /veh PLEKHG5 (11743358_a_at) / RFU ZSCAN30 (11745921_a_at) / Fold change /veh ZSCAN30 (11745921_a_at) / RFU CMKLR1 (11741424_a_at) / Fold change /veh CMKLR1 (11741424_a_at) / RFU LOC101060620 /// MAPK8IP1 (11723275_at) / Fold change /veh LOC101060620 /// MAPK8IP1 (11723275_at) / RFU SPTSSB (11747773_x_at) / Fold change /veh SPTSSB (11747773_x_at) / RFU PRSS12 (11739890_at) / Fold change /veh PRSS12 (11739890_at) / RFU BIN1 (11741810_x_at) / Fold change /veh BIN1 (11741810_x_at) / RFU WNT11 (11732464_a_at) / Fold change /veh WNT11 (11732464_a_at) / RFU C10orf10 (11716521_a_at) / Fold change /veh C10orf10 (11716521_a_at) / RFU C5orf56 (11738089_at) / Fold change /veh C5orf56 (11738089_at) / RFU CYB561 (11721691_x_at) / Fold change /veh CYB561 (11721691_x_at) / RFU ANKRD19P (11752326_a_at) / Fold change /veh ANKRD19P (11752326_a_at) / RFU OR2T12 /// OR2T33 /// OR2T8 (11738714_s_at) / Fold change /veh OR2T12 /// OR2T33 /// OR2T8 (11738714_s_at) / RFU VCAN (11748164_a_at) / Fold change /veh VCAN (11748164_a_at) / RFU JSRP1 (11732532_at) / Fold change /veh JSRP1 (11732532_at) / RFU KRTAP10-11 (11738290_x_at) / Fold change /veh KRTAP10-11 (11738290_x_at) / RFU MYO3A (11730013_a_at) / Fold change /veh MYO3A (11730013_a_at) / RFU EBF3 (11725865_a_at) / Fold change /veh EBF3 (11725865_a_at) / RFU CAMK2N1 (11719241_x_at) / Fold change /veh CAMK2N1 (11719241_x_at) / RFU C5orf56 (11738088_a_at) / Fold change /veh C5orf56 (11738088_a_at) / RFU OLFML3 (11715873_a_at) / Fold change /veh OLFML3 (11715873_a_at) / RFU LOC100653217 /// NTM (11731650_a_at) / Fold change /veh LOC100653217 /// NTM (11731650_a_at) / RFU MAPK11 (11762145_a_at) / Fold change /veh MAPK11 (11762145_a_at) / RFU FIZ1 (11724087_x_at) / Fold change /veh FIZ1 (11724087_x_at) / RFU OASL (11726364_x_at) / Fold change /veh OASL (11726364_x_at) / RFU SOX15 (11748057_x_at) / Fold change /veh SOX15 (11748057_x_at) / RFU CD79A (11719716_a_at) / Fold change /veh CD79A (11719716_a_at) / RFU HIST1H1D (11736915_at) / Fold change /veh HIST1H1D (11736915_at) / RFU CASKIN2 (11723855_a_at) / Fold change /veh CASKIN2 (11723855_a_at) / RFU LOC730098 (11760151_x_at) / Fold change /veh LOC730098 (11760151_x_at) / RFU OR4N2 (11742367_at) / Fold change /veh OR4N2 (11742367_at) / RFU PRRT2 (11749266_a_at) / Fold change /veh PRRT2 (11749266_a_at) / RFU SNX32 (11753110_a_at) / Fold change /veh SNX32 (11753110_a_at) / RFU CDHR5 (11726645_a_at) / Fold change /veh CDHR5 (11726645_a_at) / RFU RCAN1 (11760418_a_at) / Fold change /veh RCAN1 (11760418_a_at) / RFU FAM167A (11723789_a_at) / Fold change /veh FAM167A (11723789_a_at) / RFU FAM26E (11764081_at) / Fold change /veh FAM26E (11764081_at) / RFU ISYNA1 (11749810_s_at) / Fold change /veh ISYNA1 (11749810_s_at) / RFU ACY1 (11761880_at) / Fold change /veh ACY1 (11761880_at) / RFU 11764098_at / Fold change /veh 11764098_at / RFU SAMD14 (11745864_x_at) / Fold change /veh SAMD14 (11745864_x_at) / RFU NPB (11741838_a_at) / Fold change /veh NPB (11741838_a_at) / RFU TMPRSS6 (11731388_a_at) / Fold change /veh TMPRSS6 (11731388_a_at) / RFU KRTAP10-2 (11738614_at) / Fold change /veh KRTAP10-2 (11738614_at) / RFU ARHGAP8 /// PRR5-ARHGAP8 (11727945_x_at) / Fold change /veh ARHGAP8 /// PRR5-ARHGAP8 (11727945_x_at) / RFU KRTAP5-7 /// NADSYN1 (11734609_at) / Fold change /veh KRTAP5-7 /// NADSYN1 (11734609_at) / RFU RASL12 (11751679_a_at) / Fold change /veh RASL12 (11751679_a_at) / RFU CDKN2B (11736163_a_at) / Fold change /veh CDKN2B (11736163_a_at) / RFU PRF1 (11729649_at) / Fold change /veh PRF1 (11729649_at) / RFU, ZNF638 /// ZNF638-IT1 / Fold change vs veh, ZNF638 /// ZNF638-IT1 / RFU, PANK3 / Fold change vs veh, PANK3 / RFU, SH3YL1 / Fold change vs veh, SH3YL1 / RFU, ZEB2 / Fold change vs veh, ZEB2 / RFU, NRIP1 / Fold change vs veh, NRIP1 / RFU, PTTG1IP / Fold change vs veh, PTTG1IP / RFU, CAPN2 / Fold change vs veh, CAPN2 / RFU, MED14 / Fold change vs veh, MED14 / RFU, SNORA58 / Fold change vs veh, SNORA58 / RFU, C1orf63 / Fold change vs veh, C1orf63 / RFU, LRRFIP1 / Fold change vs veh, LRRFIP1 / RFU, NDUFAF7 / Fold change vs veh, NDUFAF7 / RFU, SLC12A2 / Fold change vs veh, SLC12A2 / RFU, IBTK / Fold change vs veh, IBTK / RFU, ESF1 / Fold change vs veh, ESF1 / Fold change vs veh, TMEM50B / RFU, TAOK1 / Fold change vs veh, TAOK1 / RFU, ACBD3 / Fold change vs veh, ACBD3 / RFU, TMA16 / Fold change vs veh, TMA16 / RFU, RWDD3 / Fold change vs veh, RWDD3 / RFU, BCAT1 / Fold change vs veh, BCAT1 / RFU, EDEM3 / Fold change vs veh, EDEM3 / RFU, TMEM33 / Fold change vs veh, TMEM33 / RFU, WDR75 / Fold change vs veh, WDR75 / RFU, AHCTF1 / Fold change vs veh, AHCTF1 / RFU, TFRC / Fold change vs veh, TFRC / RFU, ZDHHC17 / Fold change vs veh, ZDHHC17 / RFU, NOM1 / Fold change vs veh, NOM1 / RFU, ARL8B / Fold change vs veh, ARL8B / RFU, ZBTB11 / Fold change vs veh, ZBTB11 / RFU, TAMM41 / Fold change vs veh, TAMM41 / RFU, KIAA1704 /// LOC100996395 / Fold change vs veh, KIAA1704 /// LOC100996395 / RFU, ING1 / Fold change vs veh, ING1 / RFU, TRMT61B / Fold change vs veh, TRMT61B / RFU, FUBP3 / Fold change vs veh, FUBP3 / RFU, TP53 / Fold change vs veh, TP53 / RFU, TNKS2 / Fold change vs veh, TNKS2 / RFU, ZFP14 / Fold change vs veh, ZFP14 / RFU, ACTR2 / Fold change vs veh, ACTR2 / RFU, PPP3R1 / Fold change vs veh, PPP3R1 / RFU, PIK3R1 / Fold change vs veh, PIK3R1 / RFU, HNRNPA1 / Fold change vs veh, HNRNPA1 / RFU, RNF170 / Fold change vs veh, RNF170 / RFU, ZNF28 / Fold change vs veh, ZNF28 / RFU, RNGTT / Fold change vs veh, RNGTT / RFU, OGT / Fold change vs veh, OGT / RFU, BRD1 / Fold change vs veh, BRD1 / RFU, MARS / Fold change vs veh, MARS / RFU, ZNF655 / Fold change vs veh, ZNF655 / RFU, FAHD1 / Fold change vs veh, FAHD1 / RFU, BDP1 / Fold change vs veh, BDP1 / RFU, LRRCC1 / Fold change vs veh, LRRCC1 / RFU, ARID1A / Fold change vs veh, ARID1A / RFU, ZNF146 / Fold change vs veh, ZNF146 / RFU, ZNF330 / Fold change vs veh, ZNF330 / RFU, GPN3 / Fold change vs veh, GPN3 / RFU, C9orf123 / Fold change vs veh, C9orf123 / RFU, N4BP2L2 / Fold change vs veh, N4BP2L2 / RFU, ARFIP1 / Fold change vs veh, ARFIP1 / RFU, FAM179B / Fold change vs veh, FAM179B / RFU, BCL10 / Fold change vs veh, BCL10 / RFU, UHRF1BP1L / Fold change vs veh, UHRF1BP1L / RFU, BET1 / Fold change vs veh, BET1 / RFU, CNOT2 / Fold change vs veh, CNOT2 / RFU, ZNF268 / Fold change vs veh, ZNF268 / Fold change vs veh, ZNF507 / RFU, DGCR2 / Fold change vs veh, DGCR2 / RFU, WDSUB1 / Fold change vs veh, WDSUB1 / Fold change vs veh, HSP90B1 /// MIR3652 / RFU, ADSS / Fold change vs veh, ADSS / RFU, GK / Fold change vs veh, GK / RFU, ZNF148 / Fold change vs veh, ZNF148 / RFU, TAF9 / Fold change vs veh, TAF9 / RFU, SLC1A5 / Fold change vs veh, SLC1A5 / RFU, SLMO2 / Fold change vs veh, SLMO2 / RFU, ABCC4 / Fold change vs veh, ABCC4 / RFU, LOC101060439 /// RAP1B / Fold change vs veh, LOC101060439 /// RAP1B / RFU, RFX7 / Fold change vs veh, RFX7 / RFU, GTPBP10 / Fold change vs veh, GTPBP10 / RFU, CNEP1R1 / Fold change vs veh, CNEP1R1 / RFU, BIVM-ERCC5 /// ERCC5 / Fold change vs veh, BIVM-ERCC5 /// ERCC5 / RFU, ILF3 / Fold change vs veh, ILF3 / RFU 11762660_at / Fold change /veh 11762660_at / RFU VCAN (11757783_s_at) / Fold change /veh VCAN (11757783_s_at) / RFU DDX43 (11728927_at) / Fold change /veh DDX43 (11728927_at) / RFU KRT8 (11758188_x_at) / Fold change /veh KRT8 (11758188_x_at) / RFU NKD1 (11759106_at) / Fold change /veh NKD1 (11759106_at) / RFU SRD5A1 (11742802_a_at) / Fold change /veh SRD5A1 (11742802_a_at) / RFU TPSAB1 /// TPSB2 (11721975_s_at) / Fold change /veh TPSAB1 /// TPSB2 (11721975_s_at) / RFU GSTM3 (11746129_a_at) / Fold change /veh GSTM3 (11746129_a_at) / RFU IL23R (11737362_x_at) / Fold change /veh IL23R (11737362_x_at) / RFU TMEM51 (11727254_a_at) / Fold change /veh TMEM51 (11727254_a_at) / RFU PIWIL2 (11732686_x_at) / Fold change /veh PIWIL2 (11732686_x_at) / RFU ORM1 (11744905_x_at) / Fold change /veh ORM1 (11744905_x_at) / RFU CCDC152 (11743942_at) / Fold change /veh CCDC152 (11743942_at) / RFU ECM1 (11717891_a_at) / Fold change /veh ECM1 (11717891_a_at) / RFU IL23R (11748794_a_at) / Fold change /veh IL23R (11748794_a_at) / RFU TNFAIP8L3 (11732012_x_at) / Fold change /veh TNFAIP8L3 (11732012_x_at) / RFU MBOAT4 (11741988_at) / Fold change /veh MBOAT4 (11741988_at) / RFU 11764193_at / Fold change /veh 11764193_at / RFU TMEM53 (11763286_at) / Fold change /veh TMEM53 (11763286_at) / RFU MAGEB2 (11727129_at) / Fold change /veh MAGEB2 (11727129_at) / RFU TMEM200A (11744735_a_at) / Fold change /veh TMEM200A (11744735_a_at) / RFU CCDC152 (11751479_a_at) / Fold change /veh CCDC152 (11751479_a_at) / RFU FAM211A (11726209_a_at) / Fold change /veh FAM211A (11726209_a_at) / RFU RGS16 (11746705_a_at) / Fold change /veh RGS16 (11746705_a_at) / RFU VCAN (11755009_s_at) / Fold change /veh VCAN (11755009_s_at) / RFU RHOB (11743442_s_at) / Fold change /veh RHOB (11743442_s_at) / RFU RGS16 (11720943_a_at) / Fold change /veh RGS16 (11720943_a_at) / RFU RGS16 (11720944_at) / Fold change /veh RGS16 (11720944_at) / RFU, VPS4B / Fold change vs veh, VPS4B / RFU, CREB1 / Fold change vs veh, CREB1 / RFU, DNAJC13 / Fold change vs veh, DNAJC13 / RFU, GNAQ / Fold change vs veh, GNAQ / RFU, CDK5R1 / Fold change vs veh, CDK5R1 / RFU, ZRANB3 / Fold change vs veh, ZRANB3 / RFU, CUL4A / Fold change vs veh, CUL4A / RFU, CCNY / Fold change vs veh, CCNY / RFU, UFL1 / Fold change vs veh, UFL1 / RFU, COG3 / Fold change vs veh, COG3 / RFU, DIAPH2 / Fold change vs veh, DIAPH2 / RFU, SKA2 / Fold change vs veh, SKA2 / RFU, AFF3 / Fold change vs veh, AFF3 / RFU, LMF1 / Fold change vs veh, LMF1 / RFU, IPO11 / Fold change vs veh, IPO11 / RFU, DFFB / Fold change vs veh, DFFB / RFU, FOXP1 / Fold change vs veh, FOXP1 / RFU, CARD8 / Fold change vs veh, CARD8 / RFU, STRN3 / Fold change vs veh, STRN3 / RFU, ADK / Fold change vs veh, ADK / RFU, RASSF2 / Fold change vs veh, RASSF2 / RFU, WIPF1 / Fold change vs veh, WIPF1 / RFU, LARP1B / Fold change vs veh, LARP1B / RFU, RASA1 / Fold change vs veh, RASA1 / RFU, RB1 / Fold change vs veh, RB1 / RFU, PPFIA1 / Fold change vs veh, PPFIA1 / RFU, MAT2A / Fold change vs veh, MAT2A / RFU, CCT5 / Fold change vs veh, CCT5 / RFU, WDR92 / Fold change vs veh, WDR92 / RFU, CUX1 / Fold change vs veh, CUX1 / RFU, TTC7A / Fold change vs veh, TTC7A / RFU, TMEM135 / Fold change vs veh, TMEM135 / RFU, DEPTOR / Fold change vs veh, DEPTOR / RFU, CPM / Fold change vs veh, CPM / RFU, DNAJB6 / Fold change vs veh, DNAJB6 / RFU, CACNA2D3 / Fold change vs veh, CACNA2D3 / RFU, DTX4 / Fold change vs veh, DTX4 / RFU, TFCP2 / Fold change vs veh, TFCP2 / RFU, GMCL1 /// GMCL1P1 / Fold change vs veh, GMCL1 /// GMCL1P1 / RFU, AEBP2 / Fold change vs veh, AEBP2 / RFU, SNHG1 /// SNORD22 /// SNORD25 /// SNORD26 /// SNORD27 /// SNORD28 /// SNORD29 /// SNORD31 / Fold change vs veh, SNHG1 /// SNORD22 /// SNORD25 /// SNORD26 /// SNORD27 /// SNORD28 /// SNORD29 /// SNORD31 / Fold change (Aza/veh), C12orf56 (ProbeSet 11735607_a_at) / Fold change (ACY-1035/veh), C12orf56 (ProbeSet 11735607_a_at) / Fold change (Aza/veh), FGFR1OP (ProbeSet 11751329_s_at) / Fold change (ACY-1035/veh), FGFR1OP (ProbeSet 11751329_s_at) / Fold change (Aza/veh), VPS36 (ProbeSet 11739960_a_at) / Fold change (ACY-1035/veh), VPS36 (ProbeSet 11739960_a_at) / RFU SYPL1 (11715823_x_at) / Fold change /veh SYPL1 (11715823_x_at) / RFU IGFBP7 (11715501_s_at) / Fold change /veh IGFBP7 (11715501_s_at) / RFU REEP3 (11722064_at) / Fold change /veh REEP3 (11722064_at) / RFU IGLL1 (11728026_x_at) / Fold change /veh IGLL1 (11728026_x_at): dose or concentration left out as unconfirmed
Details: ProbeSet 11723930_at; LIST D

Nc1ncn([C@@H]2O[C@H](CO)[C@@H](O)[C@H]2O)c(=O)n1 [azacitidine]
Fold change vs veh, CCT5: 0.69

Reference: PMC5218480 (PLoS ONE, 2017)
